T/C data for 19 molecules are collected here from PubChem BioAssay AID248 (DTP/NCI, 2004).

This assay deals with L1210 leukemia ip in BDF1 mice, survival T/C. Description: NCI In Vivo Anticancer Drug Screen. Data for tumor model L1210 Leukemia (intraperitoneal) in B6D2F1 (BDF1) mice. The following applies: endpoint: mean survival time, higher = longer survival. Summed up:
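Antitumor effect is assessed in tumor-bearing animals. Survival in the compound arm is compared with a vehicle-dosed control arm and expressed as their quotient.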

The mark [1] stands for this setting: dose: 100.0 mg/kg/injection, schedule: Q01DX001 (ip), vehicle: saline.
[2] abbreviates: dose: 200.0 mg/kg/injection, schedule: Q01DX001 (ip), vehicle: saline.
Where [3] appears, read: dose: 400.0 mg/kg/injection, schedule: Q01DX001 (ip), vehicle: saline.
[4] abbreviates: dose: 100.0 mg/kg/injection, schedule: Q01DX009 (ip), vehicle: saline.
Setting [5] is: dose: 100.0 mg/kg/injection, schedule: Q04DX003 (ip), vehicle: saline.
Where [6] appears, read: dose: 200.0 mg/kg/injection, schedule: Q01DX009 (ip), vehicle: saline.
[7] abbreviates: dose: 200.0 mg/kg/injection, schedule: Q04DX003 (ip), vehicle: saline.
The mark [8] stands for this setting: dose: 400.0 mg/kg/injection, schedule: Q01DX009 (ip), vehicle: saline.
[9] abbreviates: dose: 400.0 mg/kg/injection, schedule: Q04DX003 (ip), vehicle: saline.
The mark [10] stands for this setting: dose: 100.0 mg/kg/injection, schedule: Q04DX002 (ip), vehicle: Klucel (hydroxypropylcellulose) (HPC).
[11] abbreviates: dose: 200.0 mg/kg/injection, schedule: Q04DX002 (ip), vehicle: Klucel (hydroxypropylcellulose) (HPC).
Setting [12] is: dose: 400.0 mg/kg/injection, schedule: Q04DX002 (ip), vehicle: Klucel (hydroxypropylcellulose) (HPC).
Setting [13] is: dose: 100.0 mg/kg/injection, schedule: Q01DX009 (ip), vehicle: Klucel (hydroxypropylcellulose) (HPC).
Setting [14] is: dose: 200.0 mg/kg/injection, schedule: Q01DX009 (ip), vehicle: Klucel (hydroxypropylcellulose) (HPC).
Where [15] appears, read: dose: 400.0 mg/kg/injection, schedule: Q01DX009 (ip), vehicle: Klucel (hydroxypropylcellulose) (HPC).
[16] abbreviates: dose: 100.0 mg/kg/injection, schedule: Q04DX003 (ip), vehicle: saline with Tween-80.
The mark [17] stands for this setting: dose: 25.0 mg/kg/injection, schedule: Q04DX002 (ip), vehicle: saline with Tween-80.

Several values for one entry are separate records, joined by “and”; a condition that tells them apart may be missing. Identical values can stand only once. Toxic doses and inconclusive results are not listed.

As for `COc1cc2c(cc1OC)C(CCCCCCCC1NCCc3cc(OC)c(OC)cc31)NCC2` (stereo unspecified), the T/C is, setting by setting: (dose: 0.25 mg/kg/injection, schedule: Q01DX015 (ip), vehicle: saline) 97 % of control; (dose: 0.5 mg/kg/injection, schedule: Q01DX015 (ip), vehicle: saline) 100 % of control; (dose: 1.0 mg/kg/injection, schedule: Q01DX015 (ip), vehicle: saline) 103 % of control; (dose: 2.0 mg/kg/injection, schedule: Q01DX015 (ip), vehicle: saline) 102 % of control; (dose: 4.0 mg/kg/injection, schedule: Q01DX015 (ip), vehicle: saline) 106 % of control; (dose: 8.0 mg/kg/injection, schedule: Q01DX015 (ip), vehicle: carboxymethylcellulose (CMC)) 91 % of control. In addition, the T/C is 91 % of control (dose: 16.0 mg/kg/injection, schedule: Q01DX015 (ip), vehicle: carboxymethylcellulose (CMC)); 101 % of control (dose: 50.0 mg/kg/injection, schedule: Q01DX001 (ip), vehicle: saline); 100 % of control under setting [1].
On to `COC(=O)C(NC(=O)C(C)NC(=O)OC(C)(C)C)C(C)O` (stereo unspecified), for which the T/C is 101 % of control under setting [1], 99 % of control under setting [2] and 101 % of control under setting [3].
Consider `CC(C)(C)OC(=O)NO`, for which the T/C reads like this: under setting [4], 103 % of control; (dose: 100.0 mg/kg/injection, schedule: Q04DX002 (ip), vehicle: saline) 110 % of control; under setting [5], 104 % of control; under setting [6], 100 % of control; (dose: 200.0 mg/kg/injection, schedule: Q04DX002 (ip), vehicle: saline) 98 % of control; under setting [7], 104 % of control. In addition, the T/C is, setting by setting: under setting [8], 108 % of control; (dose: 400.0 mg/kg/injection, schedule: Q04DX002 (ip), vehicle: saline) 110 % of control; under setting [9], 106 % of control.
With `CC(C)(C)C(=O)NO`, the T/C reads like this: under setting [10], 110 % of control; under setting [11], 90 % of control; under setting [12], 102 % of control.
Turning to `CC(=O)Nc1cccc(C(=O)O)c1[N+](=O)[O-]`, the T/C was 103 % of control under setting [13]; 103 % of control under setting [5]; 97 % of control under setting [14]; 106 % of control under setting [7]; 93 % of control under setting [15]; 103 % of control under setting [9].
For the molecule `S=C=Nc1cccc(N=C=S)c1`, the T/C is 105 % of control (dose: 5.0 mg/kg/injection, schedule: Q01DX001 (ip), vehicle: acetone); 124 % of control (dose: 10.0 mg/kg/injection, schedule: Q01DX001 (ip), vehicle: acetone); 100 % of control (dose: 20.0 mg/kg/injection, schedule: Q01DX001 (ip), vehicle: acetone).
Regarding `CCCCCCCCCCCCOC(C(=O)O)(c1ccccc1)c1ccccc1`, the T/C (dose: 25.0 mg/kg/injection, schedule: Q04DX003 (ip), vehicle: saline with Tween-80) was 100 % of control; the T/C (dose: 50.0 mg/kg/injection, schedule: Q04DX003 (ip), vehicle: saline with Tween-80) was 91 % of control; the T/C under setting [16] is 98 % of control and 89 % of control.
As to `O=S1(=O)C2C=CCC1C(O)CC2` (stereo unspecified), the T/C was 101 % of control under setting [4], 99 % of control under setting [6] and 101 % of control under setting [8].
With `c1ccc(CCN2CCCC2)nc1`, the T/C reads like this: (dose: 12.5 mg/kg/injection, schedule: Q04DX002 (ip), vehicle: saline with Tween-80) 103 % of control; under setting [17], 98 % of control.
Turning to `Clc1ccc(/C=N/N2CCN(/N=C/c3ccc(Cl)c(Cl)c3)CC2)cc1Cl`, the T/C is 92 % of control under setting [1], 92 % of control under setting [2] and 92 % of control under setting [3].
Regarding `OCCC#CCCCOC1CCCCO1` (stereo unspecified), the T/C runs as follows: under setting [10], 105 % of control; under setting [11], 90 % of control; under setting [12], 93 % of control.
In the case of `Cc1ccc(NC2=CCC(=O)OC2=O)cc1`, the T/C is 93 % of control (dose: 25.0 mg/kg/injection, schedule: Q01DX009 (ip), vehicle: Klucel (hydroxypropylcellulose) (HPC)); 100 % of control (dose: 25.0 mg/kg/injection, schedule: Q04DX003 (ip), vehicle: Klucel (hydroxypropylcellulose) (HPC)); 88 % of control (dose: 50.0 mg/kg/injection, schedule: Q01DX009 (ip), vehicle: Klucel (hydroxypropylcellulose) (HPC)); 105 % of control (dose: 50.0 mg/kg/injection, schedule: Q04DX003 (ip), vehicle: Klucel (hydroxypropylcellulose) (HPC)); 90 % of control under setting [13]; 97 % of control (dose: 100.0 mg/kg/injection, schedule: Q04DX003 (ip), vehicle: Klucel (hydroxypropylcellulose) (HPC)). The T/C under setting [14] is 97 % of control; the T/C (dose: 200.0 mg/kg/injection, schedule: Q04DX003 (ip), vehicle: Klucel (hydroxypropylcellulose) (HPC)) was 97 % of control; the T/C under setting [15] was 88 % of control; the T/C (dose: 400.0 mg/kg/injection, schedule: Q04DX003 (ip), vehicle: Klucel (hydroxypropylcellulose) (HPC)) is 92 % of control.
Consider `CCS[P+](NC1CCCCC1)(NC1CCCCC1)NC1CCCCC1`, for which the T/C was 94 % of control (dose: 25.0 mg/kg/injection, schedule: Q01DX009 (ip), vehicle: saline with Tween-80); 103 % of control under setting [17]; 100 % of control (dose: 50.0 mg/kg/injection, schedule: Q01DX009 (ip), vehicle: saline with Tween-80); 98 % of control (dose: 50.0 mg/kg/injection, schedule: Q04DX002 (ip), vehicle: saline with Tween-80); 88 % of control (dose: 100.0 mg/kg/injection, schedule: Q04DX002 (ip), vehicle: saline with Tween-80).
In the case of `CCN=C(c1ccc(NC(=O)c2ccc(C(=O)Nc3ccc(C(=NCC)N(CC)C(=O)C(F)(F)C(F)(F)C(F)(F)F)cc3)cc2)cc1)N(CC)C(=O)C(F)(F)C(F)(F)C(F)(F)F`, the T/C runs as follows: (dose: 1.5 mg/kg/injection, schedule: Q01DX015 (ip), vehicle: methylcellulose (MC)) 96 % of control; (dose: 3.0 mg/kg/injection, schedule: Q01DX015 (ip), vehicle: methylcellulose (MC)) 113 % of control; (dose: 7.5 mg/kg/injection, schedule: Q01DX015 (ip), vehicle: methylcellulose (MC)) 153 % of control; (dose: 12.0 mg/kg/injection, schedule: Q01DX015 (ip), vehicle: methylcellulose (MC)) 124 % of control.
`O=C(CCl)c1cccnc1C(=O)O`: the T/C by setting is: (dose: 25.0 mg/kg/injection, schedule: Q01DX009 (ip), vehicle: saline sonified) 94 % of control; (dose: 50.0 mg/kg/injection, schedule: Q01DX009 (ip), vehicle: saline sonified) 91 % of control; (dose: 100.0 mg/kg/injection, schedule: Q01DX009 (ip), vehicle: saline sonified) 89 % of control.
Regarding `CCOP(=O)(OCC)O/N=C(/C)c1cccc([N+](=O)[O-])c1`, the T/C is, setting by setting: (dose: 5.0 mg/kg/injection, schedule: Q01DX001 (ip), vehicle: saline) 100 % of control; (dose: 10.0 mg/kg/injection, schedule: Q01DX001 (ip), vehicle: saline) 97 % of control.
With `c1coc(CNc2ncnc3nc[nH]c23)c1`, the T/C is 92 % of control (dose: 75.0 mg/kg/injection, schedule: Q01DX001 (ip), vehicle: other); 103 % of control (dose: 75.0 mg/kg/injection, schedule: Q01DX009 (ip), vehicle: Klucel (hydroxypropylcellulose) (HPC)); 98 % of control (dose: 150.0 mg/kg/injection, schedule: Q01DX001 (ip), vehicle: other); 97 % of control (dose: 150.0 mg/kg/injection, schedule: Q01DX009 (ip), vehicle: Klucel (hydroxypropylcellulose) (HPC)); 97 % of control (dose: 300.0 mg/kg/injection, schedule: Q01DX001 (ip), vehicle: other); 106 % of control (dose: 300.0 mg/kg/injection, schedule: Q01DX009 (ip), vehicle: Klucel (hydroxypropylcellulose) (HPC)).
As for `CCN(CC)CCNC1CCCCC1`, the T/C under setting [16] was 94 % of control.
Consider `COc1ccc(OC)c(NCCN2C(=O)c3ccccc3C2=O)c1`, for which the T/C under setting [10] is 95 % of control, the T/C under setting [11] is 100 % of control and the T/C under setting [12] is 100 % of control.
